This is an account of results in publication PMC10092844, “Inhibition profile of trifludimoxazin towards PPO2 target site mutations” (Pest Management Science, 2022).

By IC50 is commonly meant the point on the concentration scale where inhibition reaches its midpoint.

Where two headings read alike, the source gives them in different places.

One assay relates to E. coli hemG strain. As to the kind of experiment: E. coli hemG growth assay (strain sensitivity). The class given is cell-based, Escherichia coli. As to conditions: data not shown; probably impaired uptake or hydrolysis.
The target in a further assay is PPO2 wild-type (Amaranthus tuberculatus, UniProt Q0NZW9). Nature of the assay: in vitro inhibition assay, recombinant PPO2 enzyme. Format: biochemical.
For assay [1], the target named is T1, PPO2 ΔG210 in Escherichia coli hemG (Amaranthus tuberculatus, UniProt Q0NZW9, DEL210-210, cells depend on it).
T1 sequence (Q0NZW9 with tags, fused parts or gaps DEL210-210): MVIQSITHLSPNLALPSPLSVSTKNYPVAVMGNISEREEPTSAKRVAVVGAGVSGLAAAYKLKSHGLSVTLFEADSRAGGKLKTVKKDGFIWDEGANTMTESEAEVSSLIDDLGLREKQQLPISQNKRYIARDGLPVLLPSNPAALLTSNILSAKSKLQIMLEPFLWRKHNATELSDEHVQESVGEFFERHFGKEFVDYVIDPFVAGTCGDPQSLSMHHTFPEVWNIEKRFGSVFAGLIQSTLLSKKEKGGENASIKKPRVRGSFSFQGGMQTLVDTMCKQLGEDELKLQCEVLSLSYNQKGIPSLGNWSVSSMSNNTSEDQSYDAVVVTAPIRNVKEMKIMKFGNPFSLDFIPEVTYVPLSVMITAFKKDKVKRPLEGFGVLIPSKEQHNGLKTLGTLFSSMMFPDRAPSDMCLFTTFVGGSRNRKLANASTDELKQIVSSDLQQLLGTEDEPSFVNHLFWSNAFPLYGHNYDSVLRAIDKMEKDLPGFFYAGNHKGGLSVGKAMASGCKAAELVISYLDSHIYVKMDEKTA
Format: cell-based. As to conditions: read-out: IC50 (E. coli hemG growth).

For assay [2], the target named is T2, PPO2 wild-type in Escherichia coli hemG (Amaranthus tuberculatus, UniProt Q0NZW9).
T2 sequence (Q0NZW9 31-534): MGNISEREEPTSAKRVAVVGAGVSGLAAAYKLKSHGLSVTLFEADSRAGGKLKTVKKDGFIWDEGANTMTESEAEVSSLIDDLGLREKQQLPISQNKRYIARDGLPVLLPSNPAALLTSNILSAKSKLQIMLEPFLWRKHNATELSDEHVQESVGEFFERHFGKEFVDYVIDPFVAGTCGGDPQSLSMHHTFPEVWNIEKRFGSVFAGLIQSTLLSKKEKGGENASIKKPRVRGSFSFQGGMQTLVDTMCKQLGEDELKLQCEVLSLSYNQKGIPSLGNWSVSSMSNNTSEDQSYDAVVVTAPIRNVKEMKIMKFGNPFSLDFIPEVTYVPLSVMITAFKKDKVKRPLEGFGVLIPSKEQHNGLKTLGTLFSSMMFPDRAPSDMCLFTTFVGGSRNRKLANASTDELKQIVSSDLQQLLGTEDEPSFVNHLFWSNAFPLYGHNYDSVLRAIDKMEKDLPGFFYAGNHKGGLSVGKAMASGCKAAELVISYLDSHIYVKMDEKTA
Format: cell-based. Conditions: read-out: IC50 (E. coli hemG growth).

Assay [3] deals with T1 35S::AMATU PPO2 R128M ΔG210 Arabidopsis lines. Nature of the assay: herbicide treatment of transgenic Arabidopsis T1 lines. Format: in vivo, Arabidopsis thaliana. Conditions: foliar-applied 2×, 1×, 0.5× field dose, 7 days after treatment.
In assay [4] the test system is T1 35S::AMATU PPO2 R128A ΔG210 Arabidopsis lines. Described as above. The class given is in vivo, Arabidopsis thaliana. Conditions: foliar-applied 2×, 1×, 0.5× field dose, 7 days after treatment.
Assay [5] relates to T1 35S::AMATU PPO2 R128N ΔG210 Arabidopsis lines. The description is as above. As to conditions: foliar-applied 2×, 1×, 0.5× field dose, 7 days after treatment. Format: in vivo, Arabidopsis thaliana.
For assay [6], the system named is T1 35S::AMATU PPO2 R128I ΔG210 Arabidopsis lines. Described as above. Format: in vivo, Arabidopsis thaliana. As to conditions: foliar-applied 2×, 1×, 0.5× field dose, 7 days after treatment.
Assay [7] deals with PPO1 enzyme carrying A212T mutation. On the set-up: method as in PMID 31788953. Conditions: cited from earlier work.
Assay [8] deals with T1 35S::AMATU PPO2 R128T ΔG210 Arabidopsis lines. As to the kind of experiment: herbicide treatment of transgenic Arabidopsis T1 lines. Format: in vivo, Arabidopsis thaliana. As to conditions: foliar-applied 2×, 1×, 0.5× field dose, 7 days after treatment.
Where [9] appears, read: Wild-type PPO2, recombinant protein activity in vitro.

For `CS(=O)(=O)NC(=O)c1cc(Oc2ccc(C(F)(F)F)cc2Cl)ccc1[N+](=O)[O-]` [Fomesafen, fomesafen], in the assay on E. coli hemG strain, the “sensitivity of E. coli hemG strain” value was “not sensitive”. For the same compound, on PPO2 wild-type (setting [9]), the IC50 was 7.13 nM.
For `CCOC(=O)C(C)OC(=O)c1cc(Oc2ccc(C(F)(F)F)cc2Cl)ccc1[N+](=O)[O-]` (stereo not shown) [Lactofen, lactofen], the results for the concentration for half-maximal inhibition (IC50) (in assay [1]; in [2]; on PPO2 wild-type (setting [9])) were 357 nM, 62.4 nM and 0.415 nM, respectively.
Regarding `CC(C)N(C)S(=O)(=O)NC(=O)c1cc(-n2c(=O)cc(C(F)(F)F)n(C)c2=O)c(F)cc1Cl` [Saflufenacil, saflufenacil], the 50% inhibitory concentration (IC50) in assay [1] amounted to 2120 nM; in [2], 31.9 nM; on PPO2 wild-type (read-out: IC50) it was 1.89 nM. The “herbicide efficacy, visual assessment of plant growth” value in assay [3] is “few T1 plants showed persistent growth with saflufenacil at the 2× and 0.5× rate”; in [4], “two T1 lines expressing R128A ΔG210 showed significant resistance at each applied rate”.
`C#CCN1C(=O)C(F)(F)Oc2cc(F)c(-n3c(=O)n(C)c(=S)n(C)c3=O)cc21` [Trifludimoxazin, trifludimoxazin]: the “herbicide efficacy, visual assessment of plant growth” value in assay [5] was “more reduced by trifludimoxazin than saflufenacil at each rate”; in [3], “reduced by both trifludimoxazin and saflufenacil at 1×”; in assay [6] it was “more controlled by trifludimoxazin than saflufenacil at all the used rates”; in assay [4], “reduced plant growth at 2×, 1× and 0.5× the rate of all five T1 plants”; in assay [8], “more reduced by trifludimoxazin than saflufenacil at each rate”. Moreover, the concentration for half-maximal inhibition (IC50) in assay [1] was found to be 1.18 nM; in assay [2], 0.927 nM; at PPO2 wild-type (Wild-type PPO2, recombinant protein activity in vitro, read-out: IC50) it was 0.245 nM. The “inhibition of PPO1 A212T enzyme” value in assay [7] is recorded as “fully inhibit”.
